Source: ChEMBL document CHEMBL1201862, “PubChem BioAssay data set” (2004)
The source made the active and inactive calls. For most assays here, no stated cut-off is given here; in the data, actives have a measured EC50 and inactives only a lower limit.

What was measured:
[1] = biological target: T1, Long-chain-fatty-acid--AMP ligase FadD28 (Mycobacterium tuberculosis, UniProt P9WQ59); assay: Fluorescence polarization aasay to screen for inhibitors that compete for the binding of FadD28 to a bisubstrate Measured in Biochemical System Using Plate Reader - 2147-01_Inhibitor_Dose_CherryPick_Activity.; format: functional, Mycobacterium tuberculosis H37Rv
T1 sequence (P9WQ59 whole entry): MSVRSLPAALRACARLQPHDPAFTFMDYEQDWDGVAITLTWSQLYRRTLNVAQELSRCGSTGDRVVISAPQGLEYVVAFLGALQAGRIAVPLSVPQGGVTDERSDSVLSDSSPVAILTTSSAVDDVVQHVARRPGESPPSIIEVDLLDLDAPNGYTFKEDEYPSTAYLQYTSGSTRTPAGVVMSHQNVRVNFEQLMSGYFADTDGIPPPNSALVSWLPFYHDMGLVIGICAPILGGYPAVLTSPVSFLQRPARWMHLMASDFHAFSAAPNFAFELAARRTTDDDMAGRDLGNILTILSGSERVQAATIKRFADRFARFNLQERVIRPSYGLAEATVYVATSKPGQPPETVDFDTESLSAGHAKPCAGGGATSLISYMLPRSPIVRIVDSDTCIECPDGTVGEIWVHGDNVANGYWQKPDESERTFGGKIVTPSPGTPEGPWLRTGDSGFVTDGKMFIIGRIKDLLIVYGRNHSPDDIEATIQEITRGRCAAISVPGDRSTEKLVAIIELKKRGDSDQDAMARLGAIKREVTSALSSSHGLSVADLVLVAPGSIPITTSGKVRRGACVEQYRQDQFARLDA

[2] = Luminescence Cell-Based Dose Response HTS to Identify Activators of Luciferase Translation or Activity in H4 […] Cells. [Related pubchem assays: 1829 (Project Summary), 1814 (Primary HTS)]; format: functional
Beta-galactosidase = Beta-galactosidase (Escherichia coli, UniProt Q8VNN2); assay: Dose response counterscreen for EBI2 assay utilizing the enzyme, b-galactosidase.; format: functional
Chain of Beta-galactosidase (Q8VNN2 whole entry): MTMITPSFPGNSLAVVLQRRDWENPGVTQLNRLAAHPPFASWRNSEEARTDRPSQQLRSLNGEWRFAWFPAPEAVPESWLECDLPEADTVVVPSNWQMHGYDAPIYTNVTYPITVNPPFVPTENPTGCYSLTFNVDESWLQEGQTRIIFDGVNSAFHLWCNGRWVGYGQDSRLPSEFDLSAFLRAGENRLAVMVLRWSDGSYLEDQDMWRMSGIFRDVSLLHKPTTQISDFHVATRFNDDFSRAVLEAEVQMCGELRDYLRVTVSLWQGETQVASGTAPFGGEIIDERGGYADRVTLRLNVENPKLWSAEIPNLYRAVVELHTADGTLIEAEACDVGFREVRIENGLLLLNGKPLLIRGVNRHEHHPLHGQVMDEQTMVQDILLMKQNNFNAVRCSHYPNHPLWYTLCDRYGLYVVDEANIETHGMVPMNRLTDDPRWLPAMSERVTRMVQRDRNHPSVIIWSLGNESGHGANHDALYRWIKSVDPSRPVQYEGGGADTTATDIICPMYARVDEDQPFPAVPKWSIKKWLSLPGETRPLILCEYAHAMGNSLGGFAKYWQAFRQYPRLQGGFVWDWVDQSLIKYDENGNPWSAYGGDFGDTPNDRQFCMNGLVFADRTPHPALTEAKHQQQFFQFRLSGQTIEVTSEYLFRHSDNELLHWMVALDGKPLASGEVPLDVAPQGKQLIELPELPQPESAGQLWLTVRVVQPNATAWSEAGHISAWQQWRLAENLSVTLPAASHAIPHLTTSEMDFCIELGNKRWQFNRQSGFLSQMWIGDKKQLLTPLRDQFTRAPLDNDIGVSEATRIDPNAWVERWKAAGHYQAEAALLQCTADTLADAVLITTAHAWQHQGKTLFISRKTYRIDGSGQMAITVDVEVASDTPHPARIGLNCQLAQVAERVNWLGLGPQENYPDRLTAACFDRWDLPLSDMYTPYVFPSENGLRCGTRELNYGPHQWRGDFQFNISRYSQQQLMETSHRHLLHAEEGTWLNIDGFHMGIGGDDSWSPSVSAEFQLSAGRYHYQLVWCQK

H4 = assay: Luminescence Cell-Based Dose Response HTS to Identify Activators of 5'UTR Stem-Loop Driven Prion Protein mRNA Translation in H4 Neuroglioblastoma Cells. [Related pubchem assays: 1829 (Project Summary), 1814 (Primary HTS)]; format: functional; conditions: Homo sapiens
[3] = Luminescence Cell-Based Dose Response to Identify Activators of Luciferase Translation or Activity in H4-C Neuroglioblastoma Cells. [Related pubchem assays: 1829 (Project Summary), 1814 (Primary HTS)]; format: functional
[4] = Luminescence Cell-Based Dose Response to Identify Activators of 5'UTR Stem-Loop Driven Prion Protein mRNA Translation in H4-C Neuroglioblastoma Cells. [Related pubchem assays: 1829 (Project Summary), 1814 (Primary HTS)]; format: functional
[5] = Luminescence Cell-Based Dose Confirmation to Identify Activators of 5'UTR Stem-Loop Driven Alpha-Synuclein mRNA Translation in H4 Neuroglioblastoma Cells. [Related pubchem assays: 1829 (Project Summary), 1814 (Primary HTS)]; format: functional
[6] = biological target: T2, Zinc finger protein mex-5 (Caenorhabditis elegans, UniProt Q9XUB2); assay: MEX-5/TCR-2 RNA interaction inhibitors, dose response, biochemical, C. elegans, fluorescence polarization (AID 1960)
T2 sequence (Q9XUB2 whole entry): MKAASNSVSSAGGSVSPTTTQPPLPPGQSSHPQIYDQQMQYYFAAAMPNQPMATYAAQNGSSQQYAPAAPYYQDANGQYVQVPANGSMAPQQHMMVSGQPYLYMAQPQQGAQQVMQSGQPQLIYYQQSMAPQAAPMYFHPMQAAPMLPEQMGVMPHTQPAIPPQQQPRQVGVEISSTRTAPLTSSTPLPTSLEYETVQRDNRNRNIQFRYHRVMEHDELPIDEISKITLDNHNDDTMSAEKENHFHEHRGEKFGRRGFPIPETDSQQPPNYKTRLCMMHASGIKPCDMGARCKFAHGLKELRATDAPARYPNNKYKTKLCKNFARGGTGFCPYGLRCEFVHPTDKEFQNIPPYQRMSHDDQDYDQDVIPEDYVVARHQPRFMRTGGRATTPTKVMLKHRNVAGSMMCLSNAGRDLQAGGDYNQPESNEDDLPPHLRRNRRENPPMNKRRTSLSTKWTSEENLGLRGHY

[7] = biological target: T3, RNA-binding protein pos-1 (Caenorhabditis elegans, UniProt G5EF15); assay: inhibitors of POS-1/mex-3 RNA binding, dose response, biochemical, fluorescence polarization (AID 1964);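 further: purified POS-1 fused to maltose binding protein made in E. coli; potency of compounds blocking POS-1 binding to fluorescent RNA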
T3 sequence (G5EF15 whole entry): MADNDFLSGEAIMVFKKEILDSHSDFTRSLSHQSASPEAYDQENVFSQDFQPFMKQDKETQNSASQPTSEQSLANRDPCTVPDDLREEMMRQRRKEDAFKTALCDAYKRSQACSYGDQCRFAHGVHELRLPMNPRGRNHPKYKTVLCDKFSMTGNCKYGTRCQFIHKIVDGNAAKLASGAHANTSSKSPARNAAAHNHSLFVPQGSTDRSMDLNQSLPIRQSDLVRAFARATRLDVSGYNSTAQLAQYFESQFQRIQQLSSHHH

Prothrombin = Prothrombin (Homo sapiens, UniProt P00734); assay: Thrombin 1536 HTS Dose Response Confirmation. [Related pubchem assays: 1046 (Thrombin 1536 HTS; hits were confirmed in this assay)]; format: functional
[8] = inhibitors of firefly luciferase expression or activity, dose response, H4 neuroglioma cells, luminescence (AID 1990); format: functional, cell-based
[9] = Luminescence Cell-Based Dose Response HTS to Identify Inhibitors of 5'UTR Stem-Loop Driven Prion Protein mRNA Translation in H4 Neuroglioblastoma Cells. [Related pubchem assays: 1827 (Project Summary), 1813 (Primary HTS)]; format: functional
[10] = inhibitors of SNCA 5'UTR-driven reporter translation, confirmation, H4 neuroglioma cells, luminescence (AID 1988); format: functional, cell-based
[11] = biological target: Voltage-dependent T-type calcium channel subunit alpha-1H (Homo sapiens, UniProt O95180); format: functional;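 further: channel activity triggered by adding a high calcium stimulation buffer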
Chain of Voltage-dependent T-type calcium channel subunit alpha-1H (O95180 whole entry): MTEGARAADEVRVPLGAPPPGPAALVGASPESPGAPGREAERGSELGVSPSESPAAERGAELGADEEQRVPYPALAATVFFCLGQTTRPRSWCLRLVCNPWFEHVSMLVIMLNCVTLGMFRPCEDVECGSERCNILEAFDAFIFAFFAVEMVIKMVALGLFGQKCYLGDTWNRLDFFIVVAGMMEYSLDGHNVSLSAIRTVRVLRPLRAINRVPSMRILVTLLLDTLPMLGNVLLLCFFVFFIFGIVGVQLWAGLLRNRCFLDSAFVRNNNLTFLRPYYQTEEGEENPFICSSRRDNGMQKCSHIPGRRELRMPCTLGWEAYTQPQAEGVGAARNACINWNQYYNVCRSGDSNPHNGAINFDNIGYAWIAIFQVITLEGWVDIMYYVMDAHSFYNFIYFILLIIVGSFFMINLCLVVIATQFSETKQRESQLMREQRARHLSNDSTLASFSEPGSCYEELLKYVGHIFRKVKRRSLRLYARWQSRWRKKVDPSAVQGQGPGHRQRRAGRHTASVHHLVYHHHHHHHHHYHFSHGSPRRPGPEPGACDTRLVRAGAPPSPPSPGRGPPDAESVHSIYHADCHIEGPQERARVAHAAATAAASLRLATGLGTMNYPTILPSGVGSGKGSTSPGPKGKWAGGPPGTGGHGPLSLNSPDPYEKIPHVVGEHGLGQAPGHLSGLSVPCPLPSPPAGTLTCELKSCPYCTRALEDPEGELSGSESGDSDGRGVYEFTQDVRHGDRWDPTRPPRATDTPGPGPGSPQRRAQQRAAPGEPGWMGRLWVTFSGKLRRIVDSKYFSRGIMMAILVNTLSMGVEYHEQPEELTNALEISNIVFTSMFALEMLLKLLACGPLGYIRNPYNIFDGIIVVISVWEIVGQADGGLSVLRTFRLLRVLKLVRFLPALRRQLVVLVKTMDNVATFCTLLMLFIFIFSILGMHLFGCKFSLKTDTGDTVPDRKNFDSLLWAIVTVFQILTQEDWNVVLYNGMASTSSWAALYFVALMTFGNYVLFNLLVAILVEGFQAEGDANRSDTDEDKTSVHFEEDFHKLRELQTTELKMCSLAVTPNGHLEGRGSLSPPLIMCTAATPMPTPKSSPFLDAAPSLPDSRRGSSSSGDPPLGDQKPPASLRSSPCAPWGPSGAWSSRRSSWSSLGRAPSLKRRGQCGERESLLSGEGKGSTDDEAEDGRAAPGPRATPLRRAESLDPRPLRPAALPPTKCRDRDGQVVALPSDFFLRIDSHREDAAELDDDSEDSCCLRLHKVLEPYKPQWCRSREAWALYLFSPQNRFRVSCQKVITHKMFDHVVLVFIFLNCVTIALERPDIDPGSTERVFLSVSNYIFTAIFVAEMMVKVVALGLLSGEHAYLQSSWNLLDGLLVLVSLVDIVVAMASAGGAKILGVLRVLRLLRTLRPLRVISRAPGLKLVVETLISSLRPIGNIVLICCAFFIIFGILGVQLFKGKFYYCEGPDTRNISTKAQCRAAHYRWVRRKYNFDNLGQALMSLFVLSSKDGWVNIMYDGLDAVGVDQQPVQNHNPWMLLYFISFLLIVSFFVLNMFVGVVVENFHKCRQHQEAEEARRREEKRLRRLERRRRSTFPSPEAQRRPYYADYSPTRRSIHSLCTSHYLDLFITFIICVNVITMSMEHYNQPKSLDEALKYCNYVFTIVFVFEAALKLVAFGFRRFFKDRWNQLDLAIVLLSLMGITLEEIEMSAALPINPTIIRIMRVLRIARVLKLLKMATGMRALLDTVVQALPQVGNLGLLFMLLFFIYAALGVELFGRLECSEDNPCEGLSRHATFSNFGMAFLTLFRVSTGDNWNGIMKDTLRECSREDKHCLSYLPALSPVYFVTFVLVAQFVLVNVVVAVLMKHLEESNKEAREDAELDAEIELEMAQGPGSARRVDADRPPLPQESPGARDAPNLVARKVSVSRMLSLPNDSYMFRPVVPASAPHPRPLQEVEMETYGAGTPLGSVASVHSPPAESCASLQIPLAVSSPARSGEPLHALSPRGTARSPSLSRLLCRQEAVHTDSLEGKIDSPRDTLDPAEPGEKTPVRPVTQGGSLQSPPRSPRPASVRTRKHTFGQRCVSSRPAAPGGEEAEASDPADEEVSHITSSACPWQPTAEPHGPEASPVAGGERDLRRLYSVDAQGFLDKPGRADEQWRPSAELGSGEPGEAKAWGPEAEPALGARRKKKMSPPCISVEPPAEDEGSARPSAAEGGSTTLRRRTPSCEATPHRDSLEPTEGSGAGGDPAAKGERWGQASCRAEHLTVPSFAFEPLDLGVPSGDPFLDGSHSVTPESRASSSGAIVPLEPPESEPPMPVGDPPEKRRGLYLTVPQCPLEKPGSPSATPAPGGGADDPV

In the case of `COc1ccc(/C=C/C(=O)N(C)Cc2cccs2)cc1S(=O)(=O)N1CCOCC1`, the AC50 [1] is reported as 42.6 µM (active).

In the case of `CCN1CCN(C(=O)c2cc3c(s2)-c2c(C)cccc2OC3)CC1`, the EC50 [2] is reported as 5.32 µM (active), the IC50 (Beta-galactosidase) is reported as > 80 µM (inactive) and the EC50 (H4) is reported as 9.85 µM (active).

For `CCN(CC)c1ccc(NC(=O)c2cncc(Br)c2)cc1`, the EC50 [2] was 1.48 µM (active), the EC50 [3] was > 12 µM (not active) and the EC50 (H4) was 14.3 µM (active). For the same molecule, the EC50 [4] was > 12 µM (not active) and the EC50 [5] was 0.53 µM (active).

For `CCc1c(C(=O)NNC(=S)Nc2ccc(S(=O)(=O)Nc3ncccn3)cc2)csc1C`, the EC50 [6] was 12.5 µM (active), the EC50 [7] was > 300 µM (not active) and the AC50 [1] was 89.7 µM (active).

In the case of `COc1ccc(-c2nn(C)c(=O)c3ccccc23)cc1CNC(=O)C1CCCCC1`, the IC50 (Prothrombin) is reported as > 50 µM (not active).

For `O=C(c1cc2cc(Cl)ccc2[nH]1)N1CCC2(CC1)OCCO2`, the IC50 (Beta-galactosidase) was > 80 µM (inactive).

In the case of `CCOC(=O)c1c(C)[nH]c(C)c1C(=O)Cn1nnc(-c2ccccc2C)n1`, the EC50 [8] is reported as > 60 µM (not active), the EC50 [9] is reported as 18.3 µM (active) and the EC50 [10] is reported as > 120 µM (not active). For the same molecule, the EC50 [11] was 5.31 µM (active).

In the case of `Fc1ccc(Oc2cnc3ccccc3n2)cc1`, the IC50 (Prothrombin) is reported as > 50 µM (not active).

With `O=C(/C=C/c1ccc(Cl)cc1)N1CCN(c2ccccn2)CC1` the IC50 (Beta-galactosidase) was > 80 µM (inactive).
